Assay results from PubChem BioAssay AID1963963 (Molecular Pharmacology Branch, DTP, NCI, 2024).

Tested on: 958667-338-R-J2-PDC tumor spheroids viability
Assay: Anticancer human tumor 958667-338-R-J2-PDC patient-derived colon adenocarcinoma cell line growth inhibition [PI3K]
Settings: spheroids with HUVEC and MSC; for IC50: curve of first compound; for viability, T/C: stronger effect = lower value
Text: Combinatorial screen of targeted agents with the PI3K inhibitors inavolisib, alpelisib, duvelisib, and copanlisib in multi-cell type tumor spheroids
A high-throughput screen of multi-cell type tumor spheroids was designed to identify active combinations of targeted small molecules and PI3K pathway inhibitors. Complex spheroids include a stromal component modeled by human endothelial cells (HUVEC) and fibroblasts modeled by human mesenchymal stem cells (MSCs). The concentration ranges selected for each drug and investigational agent were based upon clinically achievable concentrations if the clinical Cmax of the agent was known.
Compounds. The drugs and investigational agents: inavolisib (NSC800729), alpelisib (NSC765974), duvelisib (NSC772469), copanlisib (NSC816437), ipatasertib (NSC767898), afuresertib (NSC778305), talazoparib (NSC767125), sapanisertib (NSC764658), selumetinib (NSC741078), tovorafenib (DAY101, NSC766906), vemurafenib (NSC761431), ravoxertinib (NSC781343), sotorasib (NSC818433), MRTX1133 (NSC 836407), abemaciclib (NSC 768073), palbociclib (NSC758247), venetoclax (NSC 766270), SY5609 (NSC837396), enzalutamide (NSC755605), and darolutamide (NSC825331), were obtained from the National Cancer Institute (NCI) Developmental Therapeutics Program Chemical Repository. The FDA-approved anticancer drug set is available from the NCI Developmental Therapeutics Program. […] The stock solutions were prepared in dimethyl sulfoxide (DMSO, Sigma-Aldrich, St. Louis, MO, cat. D2650) at 800-fold the tested concentration and stored at -70 degrees C prior to their use. All drugs and investigational agents were tested over a range starting from a high concentration at or near the clinical Cmax and decreasing in half-log increments. If the clinical Cmax for an agent had not been determined, the highest concentration tested was 10 microM.
Cell Culture. All cells were maintained in an incubator at 37 degrees C and 5% CO2 with 95% humidity. The PDC lines were cultured according to standard operating procedures established by the NCI PDMR (https://pdmr.cancer.gov/sops/default.htm). All PDCs were thawed and cultured in Matrigel-coated flasks prepared with a working solution of 1X Ham's F-12 nutrient mix, without supplementation (Invitrogen, Waltham, MA, cat. 11765054), 100 U/mL penicillin-streptomycin (Invitrogen, cat. 15140122), and 2.5% Matrigel (Corning Inc., Corning, NY, cat. 354248) for the first three passages. The 354836-022-R-J1-PDC, 475296-252-R-J1-PDC, and 997726-040-R-J2-PDC lines were cultured in 6A media, which includes advanced DMEM/F-12 (Thermo Fisher Scientific, cat. 12634028), 10 mM HEPES (Thermo Fisher Scientific, cat. 15630080), 1X GlutaMAX supplement (Thermo Fisher Scientific, cat. 35050061), 0.1 mg/mL primocin (InvivoGen, San Diego, CA, cat. ant-pm-2), 10% defined fetal bovine serum, heat inactivated (HyClone Laboratories Inc., Logan, UT, cat. SH30070.03HI), 50% L-WRN conditioned media (ATCC, cat. CRL-3276), 1.25 mM N-Acetyl-L-cysteine (Sigma-Aldrich, cat. A9165), 10 mM nicotinamide (Sigma-Aldrich, cat. N0636), 1X B-27 supplement (Thermo Fisher Scientific, cat. 17504044), 1X N-2 supplement (Thermo Fisher Scientific, cat. 17502048), and 10 microM Y-27632 dihydrochloride (Tocris Bioscience, Bristol, United Kingdom, cat. 1254). The 624824-186-R-J2-PDC line was cultured in 6C/Colon 1B media, which includes all 6A media components plus 50 ng/mL human EGF recombinant protein (Thermo Fisher Scientific, cat. PHG0311). […]
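Note: spheroids exposed to compounds for seven days before readout.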

IC50 (second compound 0.00316 µM): 255 nM
IC50 (second compound 0.01 µM): 134 nM
IC50 (second compound 0.0316 µM): 38 nM
IC50 (second compound 0.1 µM): 20.6 nM
IC50 (second compound 0.316 µM): < 9.49 nM
IC50 (second compound 1 µM): < 9.49 nM
SMILES: Cn1cnc2c(F)c(Nc3ccc(Br)cc3Cl)c(C(=O)NOCCO)cc21 + COc1c(OCCCN2CCOCC2)ccc2c3n(c(=NC(=O)c4cnc(N)nc4)nc12)CCN3
viability, T/C (second compound 0.00316 µM, first compound 0.00949 µM): 81.6%
viability, T/C (second compound 0.00316 µM, first compound 0.03 µM): 81.9%
viability, T/C (second compound 0.00316 µM, first compound 0.0949 µM): 75.2%
viability, T/C (second compound 0.00316 µM, first compound 0.3 µM): 44.6%
viability, T/C (second compound 0.00316 µM, first compound 0.949 µM): 26.7%
viability, T/C (second compound 0.00316 µM, first compound 3 µM): 17.3%
viability, T/C (second compound 0.01 µM, first compound 0.00949 µM): 87.8%
viability, T/C (second compound 0.01 µM, first compound 0.03 µM): 65.3%
viability, T/C (second compound 0.01 µM, first compound 0.0949 µM): 62.1%
viability, T/C (second compound 0.01 µM, first compound 0.3 µM): 34.7%
viability, T/C (second compound 0.01 µM, first compound 0.949 µM): 24.9%
viability, T/C (second compound 0.01 µM, first compound 3 µM): 11.6%
viability, T/C (second compound 0.0316 µM, first compound 0.00949 µM): 71.6%
viability, T/C (second compound 0.0316 µM, first compound 0.03 µM): 46.2%
viability, T/C (second compound 0.0316 µM, first compound 0.0949 µM): 40.4%
viability, T/C (second compound 0.0316 µM, first compound 0.3 µM): 28%
viability, T/C (second compound 0.0316 µM, first compound 0.949 µM): 17.4%
viability, T/C (second compound 0.0316 µM, first compound 3 µM): 6.46%
viability, T/C (second compound 0.1 µM, first compound 0.00949 µM): 67.8%
viability, T/C (second compound 0.1 µM, first compound 0.03 µM): 40.9%
viability, T/C (second compound 0.1 µM, first compound 0.0949 µM): 23.8%
viability, T/C (second compound 0.1 µM, first compound 0.3 µM): 16.4%
viability, T/C (second compound 0.1 µM, first compound 0.949 µM): 8.73%
viability, T/C (second compound 0.1 µM, first compound 3 µM): 2.61%
viability, T/C (second compound 0.316 µM, first compound 0.00949 µM): 34.6%
viability, T/C (second compound 0.316 µM, first compound 0.03 µM): 25.5%
viability, T/C (second compound 0.316 µM, first compound 0.0949 µM): 13.7%
viability, T/C (second compound 0.316 µM, first compound 0.3 µM): 6.91%
viability, T/C (second compound 0.316 µM, first compound 0.949 µM): 3.48%
viability, T/C (second compound 0.316 µM, first compound 3 µM): 1.27%
viability, T/C (second compound 1 µM, first compound 0.00949 µM): 13.5%
viability, T/C (second compound 1 µM, first compound 0.03 µM): 10.8%
viability, T/C (second compound 1 µM, first compound 0.0949 µM): 5.1%
viability, T/C (second compound 1 µM, first compound 0.3 µM): 3.51%
viability, T/C (second compound 1 µM, first compound 0.949 µM): 2.89%
viability, T/C (second compound 1 µM, first compound 3 µM): 1%
